Experimental data: patent publication US20170000749A1, “Methods for Treating Cognitive Disorders Using Inhibitors of Histone Deacetylase” (Forum Pharmaceuticals, Inc., priority 2008, published 2017)
Like-named read-outs stand apart in the source and are kept apart here.

Key:
[1] = test system: Drosophila Huntington's Disease model flies; assay: In Vivo Drosophila Fly Assay for Treatment of Huntington's Disease (automated climbing behavioral assay); set-up: species or system Drosophila melanogaster; conditions: for Speed 1 to 7 (concentration) 30 uM / Speed 1 to 7 (concentration) 100 uM / Speed 1 to 7 (concentration) 300 uM: effect size of early speed (days 1-7) vs DMSO-carrier control; for Speed 8 to 10 (concentration) 30 uM / Speed 8 to 10 (concentration) 100 uM / Speed 8 to 10 (concentration) 300 uM: effect size of late speed (days 8-10) vs DMSO-carrier control
Source text: The Drosophila Huntington's Disease assay used to screen compounds of the present disclosure followed that of WO 2007/002497, which is hereby incorporated by reference in its entirety.
Briefly, parental (model and driver) lines are maintained in sufficient quantities to provide virgins and males for assay crosses as well as perpetuating the lines. Disease model flies are maintained with the disease genes “silent”, functionally linked to a UAS enhancer element. The “driver” lines contain a GAL4 element under the control of a tissue-specific promoter. These are crossed together to generate the assay flies which have tissue-specific (i.e. CNS) expression of the disease gene(s).
Weekly assay crosses are set up with sufficient virgins and males to generate enough assay embryos for sorting. Approximately 50,000 males and 75,000 virgins are crossed in population cages. Embryos are collected for an eight hour window two days later. The embryos are then sorted onto 16 mm assay vials containing regular fly media and allowed to develop. Flies containing both the GAL4 driver element and the disease gene(s) are detected by the presence of GFP, a fluorescing protein. Approximately 10 assay flies eclose per vial, the optimal number for the behavioral assay. Once the flies eclose, they are transferred onto assay vials containing liquid Drosophila food. Similarly, control crosses are set up with virgins of the driver and males from a non-disease UAS line. Throughout fly production and the assay days, all flies are maintained at constant temperature and humidity, with preset light cycle, optimized for the particular lines and crosses.
Quality control (QC) for the parental lines is carried out weekly by collecting a sample of random male flies from each line. Single-fly PCR is carried out to ascertain the presence of the GAL4 or UAS element. If greater than 5% of the individuals lack the appropriate element, the assay cross is aborted. A second form of QC is also carried out to ensure that the GAL4 element is able to drive expression of a transgene. A sample of individual “driver” virgins is crossed to UAS-GFP males. Their progeny are visually checked for GFP expression in the appropriate tissues. Lack of GFP in greater than 4% of the crosses results in the assay being aborted.
Test compounds are weighed out and dissolved in DMSO at stock concentrations 100× what is desired in the assay and arrayed into 96-well master plates, including wells for DMSO-only controls and the positive control(s). A single well is reserved for a colored dye used to ensure proper orientation of compounds during drug dispensing and fly transfer. Replicate daughter plates for each day of the assay are stamped out. The plates are bar coded and stored at −20 C until used for the assay.
For a particular assay day, the plates are thawed and a robotic liquid handler is used to dilute the test compound into the liquid fly food and dispense the mixture into the assay vials. For Huntington Disease (HD) models, eight replicates per single treatment (one compound, one concentration) are dispensed. Fresh test compound treated media is made daily during an assay.
On the day the assay flies eclose (emerge from […]; assay Day 0) they are transferred to the test compound treated vials. On assay Day 1, the flies are transferred onto clean test compound treated vials one hour before assay time. They are then placed in the assay machine to acclimate to the appropriate climate conditions.
The assay machine is an environmentally-enclosed and controlled robot that can maintain user-set temperature and humidity. The machine can hold up to sixteen 96-vial racks in four quadrants, for a total of 1536 vials. There are four camera stations, which hold four vials each and a CCD camera for movie capture. […]

[2] = target: one or more of HDAC-1, HDAC-2, HDAC-3, HDAC-4, HDAC-5, HDAC-6, HDAC-7, HDAC-8, HDAC-9, HDAC-10 and HDAC-11; assay: Inhibition of Histone Deacetylase Enzymatic Activity (Boc-Lys(Ac)-AMC substrate, Fluor-de-Lys developer); format: biochemical; conditions: read-out: HDAC Inhibition (IC50 μM) HDAC Enzyme
Procedure: The following protocol is used to assay the compounds of the disclosure.
The mixture is pre-incubated for 5 minutes at room temperature. The reaction is started by bringing the temperature to 37° C. and adding 16 μl substrate. Total reaction volume is 50 μl.
In the Tables 8, 9 and 10, A≦0.05 μM; 0.05 μM<B≦0.1 μM; 0.1 μM<C≦1 μM; and 1 μM<D≦10 μM.

[3] = test system: HDAC activity in primary mouse cortical cultures; assay: Whole-Cell Histone Deacetylase (HDAC) Inhibition Assay in Primary Mouse Cortical Cultures; format: cell-based; conditions: whole-cell (WC), mouse cortical neurons, read-out: HDAC Inhibition (IC50 μM) WC mouse cortical neurons
In short: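 Primary neocortical neurons from E17 Balb/C mouse embryos were plated at 50000 cells/well and treated at DIV9 with ten-point DMSO dilutions for 16-18 h at 37° C, in triplicate. BOC-Lys(Ac)-AMC substrate was then added for 1 h. Fluor de Lys developer containing 1 uM TSA produced a fluorophore, which was read.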

| SMILES | Speed 1 to 7 (concentration) 30 uM [1] | Speed 1 to 7 (concentration) 100 uM [1] | Speed 1 to 7 (concentration) 300 uM [1] | Speed 8 to 10 (concentration) 30 uM [1] | Speed 8 to 10 (concentration) 100 uM [1] | Speed 8 to 10 (concentration) 300 uM [1] | IC50 ([2]; Table 9) [µM] | IC50 ([3]; Table 9) [µM] | IC50 ([2]; Table 10) [µM] | IC50 ([3]; Table 10) [µM] |
| --- | --- | --- | --- | --- | --- | --- | --- | --- | --- | --- |
| O=C(NO)c1cnc(N2CC3CC2CN3c2cccc(C(F)(F)F)c2)nc1 (stereo not drawn) | 0.02 | 0.48 | 0.506 | −0.14 | 0.3 | −0.112 |  |  |  |  |
| O=C(NO)c1cnc(N2CC3CC2CN3c2cccc(OC(F)(F)F)c2)nc1 (stereo not drawn) | 0.05 | −0.01 | 0.68 | 0.15 | 0.16 | 0.35 |  |  |  |  |
| O=C(NO)c1cnc(N2CC3CC2CN3c2ccc3c(c2)OC(F)(F)O3)nc1 (stereo not drawn) | 0.28 | 0.64 | 0.66 | 0.22 | 0.46 | 0.58 |  |  |  |  |
| O=C(NO)c1cnc(N2CC3CC2CN3c2cccc(SC(F)(F)F)c2)nc1 (stereo not drawn) | 0.63 | 0.38 | 0.03 | 0.28 | 0.02 | −0.29 |  |  |  |  |
| O=C(NO)c1cnc(N2CC3CC2CN3c2cc(C(F)(F)F)ccn2)nc1 (stereo not drawn) | 0.468 | 0.82 | 0.3 | 0.087 | 0.82 | 0.54 |  |  |  |  |
| O=C(NO)c1cnc(N2CC3CC2CN3c2cccc(C(F)(F)F)n2)nc1 (stereo not drawn) | 0.781 | 0.549 | 0.411 | 0.291 | 0.376 | 0.471 |  |  |  |  |
| O=C(NO)c1cnc(N2CC3CC2CN3c2cccc3nonc23)nc1 (stereo not drawn) |  | 0.84 | 0.68 |  | 0.26 | 0.5 |  |  |  |  |
| Cc1ccc(N2CC3CC2CN3c2ncc(C(=O)NO)cn2)cc1 (stereo not drawn) | −0.007 | 0.046 | 0.829 | −0.134 | −0.369 | −0.107 |  |  |  |  |
| CC(C)OC(=O)N1CC2CC1CN2c1ncc(C(=O)NO)cn1 (stereo not drawn) | 0.495 | 0.33 | −0.469 | 0.338 | 0.368 | 0.512 |  |  |  |  |
| Cc1cccc(N2CC3CC2CN3c2ncc(C(=O)NO)cn2)c1 (stereo not drawn) | 0.493 | 0.588 | 0.412 | 0.036 | 0.359 | 0.439 |  |  |  |  |
| O=C(NO)c1ccc(N2C[C@@H]3C[C@H]2CN3c2cccc(C(F)(F)F)c2)nn1 [N-hydroxy-6-((1S,4S)-5-(3-(trifluoromethyl)phenyl)-2,5-diazabicyclo[2.2.1]heptan-2-yl)pyridazine-3-carboxamide] |  |  |  |  |  |  | 0.1 to 1 | 5 to 15 |  |  |
| O=C(CCCCCCn1c(=O)c2ccccc2c2ccccc21)NO [N-hydroxy-7-(6-oxophenanthridin-5(6H)-yl)heptanamide] |  |  |  |  |  |  |  |  | < 0.05 | < 1 |
| O=C(CCCCCCN1C(=O)c2ccccc2Oc2ccccc21)NO [N-hydroxy-7-(11-oxodibenzo[b,f][1,4]oxazepin-10(11H)-yl)heptanamide] |  |  |  |  |  |  |  |  | < 0.05 | < 1 |
| O=C(CCCCCCN1C(=O)c2ccccc2Sc2ccccc21)NO [N-hydroxy-7-(11-oxodibenzo[b,f][1,4]thiazepin-10(11H)-yl)heptanamide] |  |  |  |  |  |  |  |  | < 0.05 | < 1 |
| O=C(CCCCCCOc1nc2ccccc2c2ccccc12)NO [N-hydroxy-7-(phenanthridin-6-yloxy)heptanamide] |  |  |  |  |  |  |  |  | < 0.05 | 5 to 15 |
| O=C(CCCCCCCN1C(=O)c2ccccc2Oc2ccccc21)NO [N-hydroxy-8-(11-oxodibenzo[b,f][1,4]oxazepin-10(11H)-yl)octanamide] |  |  |  |  |  |  |  |  | 0.05 to 0.1 | 1 to 5 |
| O=C(NO)c1cnc(N2CCCN(C(=O)OCc3ccccc3)CC2)nc1 [benzyl 4-(5-(hydroxycarbamoyl)pyrimidin-2-yl)-1,4-diazepane-1-carboxylate] |  |  |  |  |  |  |  |  | 0.05 to 0.1 | 1 to 5 |
| O=C(NO)c1ccc(C2=Nc3ccccc3Oc3ccc(F)cc32)cc1 [drawing 821] | 0.118 | −0.004 | 0.444 | −0.108 | 0.139 | 0.47 |  |  |  |  |
